Measured values reported in patent US7153883B2, “Carboxylic acids and carboxylic acid isosteres of N-heterocyclic compounds” (GPI NIL Holdings Inc., priority 1998, dated 2006).
pKi: −log10 of the molar value. Values belong to the compound of their own block, whether it stands above or below them.

Legend:
[1] = system: retinal ganglion cell axons; assay: Protection of retinal ganglion cell axons 14 days after optic nerve transection (RT97); assay type: in vivo, Sprague Dawley rats; conditions: ± SEM
Excerpt: Efficacy of representative compounds from different immunophilin ligand series in protecting retinal ganglion cell axons from degeneration following optic nerve transection is set forth in Table VI.

[2] = Clearance; assay type: in vitro ADME
[3] = system: dopaminergic neurons; assay: MPTP model of Parkinson's Disease in mice (TH immunostaining); assay type: in vivo, CD1 white mice; conditions: Mus musculus, Neuron, po; 10 mg/kg p.o.; MPTP-lesioned mice; read-out: Post-MPTP % TH RECOVERY
Procedure: MPTP lesioning of dopaminergic neurons in mice was used as an animal model of Parkinson's Disease. Four week old male CD1 white mice were dosed i.p. with 30 mg/kg of MPTP for 5 days. […] At 18 days following MPTP treatment, the animals were sacrificed and the striata were dissected and homogenized. Immunostaining was performed on saggital and coronal brain sections using anti-tyrosine hydroxylase Ig to quantitate survival and recovery of dopaminergic neurons. In animals treated with MPTP and vehicle, a substantial loss of functional dopaminergic terminals was observed as compared to non-lesioned animals. In another protocol, test compounds were administered only subsequent to MPTP-induced lesioning. Thus, after animals were treated with MPTP for 5 days, an additional 3 days passed before beginning oral drug treatment on day 8. […] On day 18, the animals were sacrificed and analyzed as described above.
Table V presents the percent recovery of dopaminergic neurons in the first (concurrent dosing) paradigm in animals receiving carboxylic acid or carboxylic acid isostere compounds of the present invention.
Percent striatal innervation density was quantitated in brain sections with an anti-tyrosine hydroxylase immunoglobulin, which is indicative of functional dopaminergic neurons. The striatal innervation density of 23% for animals pretreated with only a vehicle and administered a vehicle orally during treatment, is indicative of normal non-lesioned striatal tissue. Striatal innervation density is reduced to 5% for animals pretreated with MPTP and administered a vehicle orally during treatment, and is indicative of MPTP-induced lesioning.

[4] = system: hair growth; assay: In vivo hair generation test with C57 Black 6 mice; conditions: topical, 1 μmole per milliliter three times per week, evaluated after 14 days
Procedure: Care was taken not to nick or cause abrasion to the underlaying dermal layers. The animals were in anagen growth phase, as indicated by the pinkish color of the skin. Referring now to FIG. 2, four animals per group were treated by topical administration with 20% propylene glycol vehicle (FIG. 2), or neuroimmunophilin FKBP ligands dissolved in the vehicle. The animals were treated with vehicle or neuroimmunophilin ligands every 48 hours (3 applications total over the course of 5 days) and the hair growth was allowed to proceed for 6 weeks. Hair growth was quantitated by the percent of shaved area covered by new hair growth during this time period.
Care was taken not to nick or cause abrasion to the underlying dermal layers. Compounds at a concentration of 1 μmole per milliliter were carefully applied to the shaved area of the mice (5 mice per group) three times per week. Hair growth was evaluated 14 days after initiation of drug treatment. The relative scale for assessing hair growth is as follows: • 0=no growth; • 1=beginning of growth in small tufts; • 2=hair growth covering over <25% of shaved area; • 3=hair growth covering over >25% of shaved area, but less than 50% of shaved area; • 4=hair growth covering over >50% of shaved area, but less than 75% of shaved area; • 5=complete hair growth of shaved area.

[5] = molecular target: Rotamase (Homo sapiens, UniProt P62942); assay: Rotamase inhibition; assay type: biochemical; conditions: read-out: K1 Rotamase
[6] = system: retinal ganglion cells and optic nerve axons; assay: Optic nerve transection: retinal ganglion cell survival, optic nerve axons and myelin 90 days after transection; assay type: in vivo, Sprague Dawley rats
Excerpt: Transection of the mammalian optic nerve results in a brief period of abortive regeneration, but the majority of axotomized neurons die and the axons from many persisting ganglion cells die back beyond the optic nerve head. […]
All eyes and optic nerves stumps were removed.

[7] = system: retinal ganglion cells; assay: Retinal ischemia: ganglion cell, optic nerve axon and myelin degeneration; assay type: in vivo, rats
Excerpt: Retinal ganglion cells were retrogradely labeled in adult rats by bilateral injection of fluorogold in their lateral geniculate nuclei. Labeled ganglion cells in the normal rat retina appear as white profiles against the dark background (FIG. 4A). Complete retinal ischemia was produced by infusing normal saline solution into the retinal vitreous cavity of each eye until the intraocular pressure exceeded arterial blood pressure. 28 days after the ischemic episode extensive degeneration of retinal ganglion cell was evidenced by massive reduction in the density of fluorogold labeled cells (FIG. 4B).

[8] = system: retina; assay: Streptozotocin induced diabetes: retinal neovascularization and neuron loss; assay type: in vivo; conditions: 28 day treatment beginning 8 weeks after onset of diabetes
[9] = system: spatial memory; assay: Morris watermaze spatial learning and memory in aged rodents; assay type: in vivo, C57BL/6N-Nia mice; conditions: 10 mg/kg daily, retention testing after 3 weeks of dosing; aged impaired mice
Excerpt: The Morris watermaze is widely used for assessing spatial memory formation and retention in experimental animals. The test depends on the animal's ability to utilize spatial visual information in order to locate a submerged escape platform in a water tank. It is important that the tank itself be as devoid of specific visual features as possible—thus, it is always circular in shape, the sides are kept smooth and in uniform dull colors, and the water is rendered opaque with nontoxic watercolour pigment or powdered milk. This is to ensure that the animal navigates only by the use of more distant visual cues, or by the use of intra-maze cues specifically provided by the experimenter. The animals' path, speed, and swim time are tracked with a ceiling camera for later computerized analysis. Over the course of several successive trials, spatial learning can therefore be defined as a drop of distance swum, or time elapsed, from placement in the tank until escape onto the invisible platform. The procedure involved using three-month old (young) and 18–19 month old male C57BL/6N-Nia (aged) mice which habituated to the well known and conventional Morris watermaze during a 4 trials/day, 3–4 day visible platform training phase. […] Swim Distances (cm) were analyzed in a 7×5 ANOVA including Groups and Blocks (1–5) as factors in the analysis, treating Blocks as a repeated measure.

[10] = 10 mg/kg/day s.c. for 28 days, 90 days after transection
[11] = treatment first 14 days, 90 days after transection
[12] = treatment first 28 days, 90 days after transection
[13] = 28 days after 1 hour retinal ischemic episode

Chain of Rotamase (P62942 2-108 limits assumed): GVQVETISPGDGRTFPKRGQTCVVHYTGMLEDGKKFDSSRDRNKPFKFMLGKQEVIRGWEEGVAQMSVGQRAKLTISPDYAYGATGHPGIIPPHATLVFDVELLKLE

Compound: O=C(SCCCc1ccccc1)[C@@H]1CCCN1S(=O)(=O)Cc1ccccc1 [C]
- RT97 + RGC axon density 14 days after ON transection (% ON axons rescued) [1]: 60.4%±3.1%SEM
- Clearance [2]: 31.1 µL/min

Compound: CCC(C)(C)C(=O)C(=O)N1CCC[C@H]1CO [Compound 26, (2S)-1-(1,2-dioxo-3,3-dimethylpentyl)-2-hydroxymethyl pyrrolidine]
- percent TH recovery after MPTP at 10 mg/kg [3]: 23.2%

- melting point: 91 to 93 °C
Compound: CCC(C)(C)C(=O)C(=O)N1CCC[C@H]1CC#N [Compound 28, 2-[1-(3,3-Dimethyl-2-oxopentanoyl)pyrrolidin-2-yl]ethanenitrile]
- percent TH recovery after MPTP at 10 mg/kg [3]: 15.7%

Compound: CCC(C)(C)C(=O)C(=O)N1CCC[C@H]1C#N [Compound 29, (2S)-1-(1,2-dioxo-3,3-dimethylpentyl)-2-pyrrolidinecarbonitrile]
- percent TH recovery after MPTP at 10 mg/kg [3]: 34.1%

Compound: CCC(C)(C)C(=O)C(=O)N1CCC[C@H]1c1nnn[nH]1 [Compound 30, (2S)-1-(1,2-dioxo-3,3-dimethylpentyl)-2-pyrrolidinetetrazole]
- percent TH recovery after MPTP at 10 mg/kg [3]: 19.6%

Compound: CCC(C)(C)C(=O)C(=O)N1CCCC[C@H]1C(N)=O [Compound 35, (2S)-1-(1,2-dioxo-3,3-dimethylpentyl)-2-aminocarbonyl piperidine]
- percent TH recovery after MPTP at 10 mg/kg [3]: 46.5%
- hair growth on shaved area [4]: dramatic hair growth

Compound: CCC(C)(C)C(=O)C(=O)N1CCC[C@H]1C(=O)O [Compound 137, (2S)-1-(1,2-dioxo-3,3-dimethylpentyl)-2-pyrrolidinecarboxylic acid]
- percent TH recovery after MPTP at 10 mg/kg [3]: 26.7%
- hair growth on shaved area [4]: dramatic hair growth

- melting point: 72 to 74 °C
Compound: CCC(C)(C)C(=O)C(=O)N1CCC[C@H]1C(=O)NNC(=O)c1cccs1 [Compound 140, [1-(3,3-Dimethyl-2-oxopentanoyl)pyrrolidin-2-yl]-N-(2-thienylcarbonylamino)-formamide]
- percent TH recovery after MPTP at 10 mg/kg [3]: 10.4%

Compound: CCC(C)(C)C(=O)C(=O)N1CCC[C@H]1COc1ccc([N+](=O)[O-])cc1 [Compound 141, 3,3-Dimethyl-1-{2-[(4-nitrophenoxy)methyl]pyrrolidinyl}pentane-1,2-dione]
- percent TH recovery after MPTP at 10 mg/kg [3]: 26.3%

- melting point: 59 to 61 °C
Compound: CCC(C)(C)C(=O)C(=O)N1CCC[C@H]1C(=O)NNS(=O)(=O)c1ccc(C)cc1 [Compound 146, [1-(3,3-Dimethyl-2-oxopentanoyl)pyrrolidin-2-yl]-N-{[(4-methylphenyl)sulfonyl]-amino}formamide]
- percent TH recovery after MPTP at 10 mg/kg [3]: 40.6%

- melting point: 57 to 60 °C
Compound: CCC(C)(C)C(=O)C(=O)N1CCC[C@H]1C(=O)NNS(=O)(=O)c1ccc(F)cc1 [Compound 147]

Compound: CCC(C)(C)C(=O)C(=O)N1CCC[C@H]1c1nnc(S)[nH]1 [Compound 148, (2S)-3,3-Dimethyl-1-[2-(5-sulfanyl(4H-1,2,4-triazol-3-yl))pyrrolidinyl]-pentane-1,2-dione]
- percent TH recovery after MPTP at 10 mg/kg [3]: 21.4%

- Clearance [2]: 41.8 µL/min
Compound: CCC(C)(C)C(=O)C(=O)N1CCCCC1C(=O)OC(CCc1ccccc1)CCc1ccccc1 (centres unmarked) [E]

- pKi [5]: 6.57
Compound: CCC(C)(C)C(=O)C(=O)N1CCSC1C(=O)OCCCc1cccnc1 (centres unmarked) [F]

Compound: CCC(C)(C)C(=O)C(=O)N1CCC[C@H]1C(=O)OCCCc1cccnc1 [GPI 1046]
- axons of protected neurons in the proximal stump [6, 10]: preserved the axons of virtually all protected neurons
- ganglion cell population spared [6, 10]: 25%
- density of large, medium and small caliber optic nerve axons ([6]; 28 day treatment): significant increase
- density of myelin, distal stump ([6]; treatment first 14 days): slightly increase the density of myelin
- shrinkage of the distal stump ([6]; treatment first 14 days): did not protect against shrinkage of the distal stump
- protection of optic nerve axons, proximal stump [6, 11]: 5.3%
- recovery in myelin density, proximal stump [6, 11]: 1.6%
- cross sectional shrinkage of the distal stump ([6]; treatment first 28 days): prevented cross sectional shrinkage
- protection of the vulnerable ganglion cell population ([6]; treatment first 28 days after transection, 90 days after transection): 12.6%
- myelin levels in distal stump, % of normal levels [6, 12]: 99%
- recovery of myelin density, proximal stump [6, 12]: 70%
- density of retinal ganglion cells that survived ([6]; treatment for 14 days, 90 days after transection): small but not significant increase
- spared retinal ganglion cells with protected optic nerve axons ([6]; treatment for 28 days, 90 days after transection): 81.4%
- protection of vulnerable ganglion cell population ([7]; 10 mg/kg s.c. 1 hour prior to ischemia and 10 mg/kg/day next four days, 28 days after ischemia): noticeable protection of a large proportion
- density of degenerating myelin figures [7, 13]: dramatically decreased
- optic nerve axon degeneration [7, 13]: protected the majority of optic nerve axons from degeneration
- neovascularization in the PR, ONL, OPL and INL [8]: reduced neovascularization
- neuronal loss in the ONL [8]: did not appear to protect against neuronal loss in the ONL
- loss of neurons in the INL and GCL ([8]; vs streptozotocin/vehicle): appeared to decrease the loss of neurons
- RT97 + RGC axon density 14 days after ON transection (% ON axons rescued) [1]: 60.5%±3.9%SEM
- Clearance [2]: 63.8 µL/min
- spatial memory performance (retention testing, swim distance) [9]: significantly enhanced spatial memory performance

- Clearance [2]: 8.0 µL/min
Compound: O=C(OCCCc1cccnc1)[C@@H]1CCCN1C(=S)NC1CCCCC1 [I]

- Clearance [2]: 1.5 µL/min
Compound: CCC(C)(C)C(=O)C(=O)N1CCC[C@H]1C(=O)CCCCc1cccnc1 [J]

- Clearance [2]: 4.5 µL/min
Compound: CCC(C)(C)C(=O)C(=O)N1CCCC[C@H]1C(=O)SCCC(c1ccccc1)c1ccccc1 [K]

Compound: CCC(C)(C)C(=O)C(=O)N1CCC[C@H]1C(=O)O [L]
- RT97 + RGC axon density 14 days after ON transection (% ON axons rescued) [1]: 7.8%±3.0%SEM
- Clearance [2]: 5.2 µL/min

Compound: CCC(C)(C)C(=O)C(=O)N1CCC[C@H]1C(=O)SCCC(c1ccccc1)c1ccccc1 [M]
- RT97 + RGC axon density 14 days after ON transection (% ON axons rescued) [1]: −6.3%±3.9%SEM
- Clearance [2]: 12.5 µL/min

- Clearance [2]: 21.9 µL/min
Compound: CN(C)C(=O)N1CCC[C@H]1C(=O)SCCCc1ccccc1 [N]
